In paper PMC7587356, “High-Throughput Screening for Inhibitors of the SARS-CoV-2 Protease Using a FRET-Biosensor” (Molecules, 2020):
Where a name gives a salt, the structure may show the parent alone. Read-outs that look alike come from different tables or passages of the source.

Target: SARS-CoV-2 3CLpro (Severe acute respiratory syndrome coronavirus 2, UniProt P0DTD1)
Assay: biochemical
Format: biochemical
Parameters: Replicate_1 / Replicate_2 / mean / mean (LOPAC_screen_w_protease): unit not given here
Conditions: for mean (LOPAC screen with protease) / Replicate_1 (LOPAC screen with protease) / Replicate_2 (LOPAC screen with protease): primary screen at 5 µM
[1] = 4 h, sheet LOPAC_screen_w_protease, primary screen with protease, 5 µM, mean of two replicates, read-out: mean
[2] = 4 h, sheet LOPAC_screen_w_protease, primary screen with protease, 5 µM, replicate 1, read-out: Replicate_1
[3] = 4 h, sheet LOPAC_screen_w_protease, primary screen with protease, 5 µM, replicate 2, read-out: Replicate_2
[4] = sheet LOPAC_screen_w_protease, LOPAC1280 at 5 µM, mean of two replicates
[5] = sheet LOPAC_screen_w_protease, LOPAC1280 at 5 µM, replicate 1
[6] = sheet LOPAC_screen_w_protease, LOPAC1280 at 5 µM, replicate 2
[7] = 4 h, sheet LOPAC_screen_w_protease, LOPAC1280 primary screen with protease, 5 µM compound, mean of the two replicates, read-out: mean
[8] = 4 h, sheet LOPAC_screen_w_protease, LOPAC1280 primary screen with protease, 5 µM compound, replicate 1, read-out: Replicate_1
[9] = 4 h, sheet LOPAC_screen_w_protease, LOPAC1280 primary screen with protease, 5 µM compound, replicate 2, read-out: Replicate_2
[10] = 4 h, LOPAC1280 primary screen with protease, 5 µM compound, replicate 1, read-out: Replicate_1 (LOPAC_screen_w_protease)
[11] = LOPAC1280 primary screen with protease, 5 µM compound, mean of the two replicates
[12] = 4 h, read-out: Replicate_1 (LOPAC_screen_w_protease)
[13] = 4 h, read-out: Replicate_2 (LOPAC_screen_w_protease)
[14] = LOPAC1280 primary screen with protease, 5 µM compound, mean of two replicates
[15] = LOPAC1280 primary screen with protease, 5 µM compound, replicate 1
[16] = LOPAC1280 primary screen with protease, 5 µM compound, replicate 2
[17] = 4 h, sheet LOPAC_screen_w_protease, LOPAC1280 primary screen at 5 µM, with protease, mean of the two replicates, read-out: mean
[18] = 4 h, sheet LOPAC_screen_w_protease, LOPAC1280 primary screen at 5 µM, with protease, replicate 1, read-out: Replicate_1
[19] = 4 h, sheet LOPAC_screen_w_protease, LOPAC1280 primary screen at 5 µM, with protease, replicate 2, read-out: Replicate_2
[20] = sheet LOPAC_screen_w_protease, mean of two replicates
[21] = sheet LOPAC_screen_w_protease, replicate 1
[22] = sheet LOPAC_screen_w_protease, replicate 2
[23] = 4 h, sheet LOPAC_screen_w_protease, primary screen of LOPAC1280 at 5 µM with protease, mean of the two replicates, read-out: mean
[24] = 4 h, sheet LOPAC_screen_w_protease, primary screen of LOPAC1280 at 5 µM with protease, replicate 1, read-out: Replicate_1
[25] = 4 h, sheet LOPAC_screen_w_protease, primary screen of LOPAC1280 at 5 µM with protease, replicate 2, read-out: Replicate_2
[26] = 4 h, sheet LOPAC_screen_w_protease, primary screen with protease, compound at 5 µM, mean of two replicates, read-out: mean
[27] = 4 h, sheet LOPAC_screen_w_protease, primary screen with protease, compound at 5 µM, replicate 1, read-out: Replicate_1
[28] = 4 h, sheet LOPAC_screen_w_protease, primary screen with protease, compound at 5 µM, replicate 2, read-out: Replicate_2
[29] = sheet LOPAC_screen_w_protease, primary screen with protease, mean of two replicates
[30] = sheet LOPAC_screen_w_protease, primary screen with protease, replicate 1
[31] = sheet LOPAC_screen_w_protease, primary screen with protease, replicate 2
[32] = sheet LOPAC_screen_w_protease, primary screen of LOPAC1280 at 5 µM with protease, mean of the two replicates
[33] = sheet LOPAC_screen_w_protease, primary screen of LOPAC1280 at 5 µM with protease, replicate 1
[34] = sheet LOPAC_screen_w_protease, primary screen of LOPAC1280 at 5 µM with protease, replicate 2

O=C(O)c1ccccc1Nc1ccccc1 [N-Phenylanthranilic acid]
inhibition at 5 µM [1]: 0.157% | inhibition at 5 µM [2]: 0.635% | inhibition at 5 µM [3]: -0.322%

COc1ccccc1N1CCN(CCN(C(=O)C2CCCCC2)c2ccccn2)CC1.O=C(O)/C=C\C(=O)O [WAY-100635 maleate]
mean [4]: 1.0596 | Replicate_1 [5]: 1.502 | Replicate_2 [6]: 0.6169

Cc1cc(C(C)(C)C)c(O)c(C)c1CC1=NCCN1 [Oxymetazoline hydrochloride]
inhibition at 5 µM [7]: 5.36% | inhibition at 5 µM [8]: 4.63% | inhibition at 5 µM [9]: 6.09%

NNCc1cccc(O)c1 [3-Hydroxybenzylhydrazine dihydrochloride]
inhibition at 5 µM [10]: 3.31% | inhibition at 5 µM (4 h, LOPAC1280 primary screen with protease, 5 µM compound, replicate 2, read-out: Replicate_2 (LOPAC_screen_w_protease)): 0.839% | mean (LOPAC_screen_w_protease) [11]: 2.074

CN(C)C(=O)Oc1cccc([N+](C)(C)C)c1 [Neostigmine bromide]
inhibition at 5 µM [7]: 5.51% | inhibition at 5 µM [8]: 4.9% | inhibition at 5 µM [9]: 6.13%

COC(=O)[C@H]1[C@H]2C[C@@H]3c4[nH]c5cc(OC)ccc5c4CCN3C[C@H]2C[C@@H](OC(=O)c2cc(OC)c(OC)c(OC)c2)[C@@H]1OC [Reserpine]
inhibition at 5 µM [12]: 2.93% | inhibition at 5 µM [13]: 0.694%

N#C/C(=C\c1ccc(O)c(O)c1)C(=O)NCCCNC(=O)/C(C#N)=C/c1ccc(O)c(O)c1 [Tyrphostin AG 537]
mean (LOPAC_screen_w_protease) [14]: 1.443 | Replicate_1 (LOPAC_screen_w_protease) [15]: 1.008 | Replicate_2 (LOPAC_screen_w_protease) [16]: 1.878

NC(=O)CC[C@H](N)C(=O)O [L-Glutamine]
inhibition at 5 µM [17]: 0.871% | inhibition at 5 µM [18]: 2.13% | inhibition at 5 µM [19]: -0.384%

CCCCNc1c(C(=O)OCC)c(C)nc2c1cnn2CC [Tracazolate]
inhibition at 5 µM [1]: -0.116% | inhibition at 5 µM [2]: 0.109% | inhibition at 5 µM [3]: -0.341%

CNCC(O)c1ccc(O)c(O)c1.Cl (racemic) [(±)-Epinephrine hydrochloride]
Replicate_1: 3.211 | Replicate_2: 1.4095 | mean: 2.31

C[C@]12CC[C@@H](O)C[C@@H]1CC[C@@H]1[C@@H]2CC[C@]2(C)[C@@H](O)CC[C@@H]12 [5alpha-Androstane-3alpha,17beta-diol]
mean (LOPAC_screen_w_protease) [14]: 1.678 | Replicate_1 (LOPAC_screen_w_protease) [15]: 0.2579 | Replicate_2 (LOPAC_screen_w_protease) [16]: 3.098

N[C@@H](Cn1cc(I)c(=O)[nH]c1=O)C(=O)O [S-5-Iodowillardiine]
mean (LOPAC screen with protease) [20]: 6.582 | Replicate_1 (LOPAC screen with protease) [21]: 5.993 | Replicate_2 (LOPAC screen with protease) [22]: 7.171

CCN1CCC[C@H]1CNC(=O)c1cc(S(N)(=O)=O)ccc1OC [(-)-Sulpiride]
inhibition at 5 µM [10]: 0.997% | mean (LOPAC_screen_w_protease) [14]: 1.652

Cn1cnc2c1c(=O)[nH]c(=O)n2C [Theobromine]
inhibition at 5 µM [23]: 3.53% | inhibition at 5 µM [24]: 4.5% | inhibition at 5 µM [25]: 2.55%

CC(N)(Cc1ccc(O)c(O)c1)C(=O)O (racemic)
mean (LOPAC screen with protease) [20]: 6.44 | Replicate_1 (LOPAC screen with protease) [21]: 5.736 | Replicate_2 (LOPAC screen with protease) [22]: 7.145

Oc1ccc(-c2nc(-c3ccncc3)c(-c3ccc(F)cc3)[nH]2)cc1 [SB 202190]
inhibition at 5 µM (4 h, sheet LOPAC_screen_w_protease, primary screen with protease, mean of two replicates, read-out: mean): 2.45% | inhibition at 5 µM (4 h, sheet LOPAC_screen_w_protease, primary screen with protease, replicate 1, read-out: Replicate_1): 1.31% | inhibition at 5 µM (4 h, sheet LOPAC_screen_w_protease, primary screen with protease, replicate 2, read-out: Replicate_2): 3.6%

CC[C@@H]1C(=O)OC[C@@H]1Cc1cncn1C [Pilocarpine nitrate]
inhibition at 5 µM [1]: -0.33% | inhibition at 5 µM [2]: -0.127% | inhibition at 5 µM [3]: -0.532%

Cc1nc(N=Nc2ccc(S(=O)(=O)O)cc2S(=O)(=O)O)c(COP(=O)(O)O)c(C=O)c1O [PPADS]
mean (sheet LOPAC_screen_w_protease, primary screen with protease, 5 µM, mean of two replicates): 0.05886 | Replicate_1 (sheet LOPAC_screen_w_protease, primary screen with protease, 5 µM, replicate 1): -0.6012 | Replicate_2 (sheet LOPAC_screen_w_protease, primary screen with protease, 5 µM, replicate 2): 0.7189

Cc1cc(O)c2c(c1)C(=O)c1cc(O)cc(O)c1C2=O [Emodin]
inhibition at 5 µM (4 h, read-out: Replicate_1 (LOPAC screen with protease)): 10.9% | inhibition at 5 µM (4 h, read-out: Replicate_2 (LOPAC screen with protease)): 5.72% | inhibition at 5 µM (4 h, read-out: mean (LOPAC screen with protease)): 8.32%

CN(C)C(=O)Oc1ccc[n+](C)c1 [Pyridostigmine bromide]
inhibition at 5 µM [1]: 0.333% | inhibition at 5 µM [2]: 1.4% | inhibition at 5 µM [3]: -0.737%

CCc1cccc2c3c([nH]c12)C(CC)(CC(=O)O)OCC3 (centres unmarked) [Etodolac]
inhibition at 5 µM [17]: 0.659% | inhibition at 5 µM [18]: 1.48% | inhibition at 5 µM [19]: -0.164%

CC[C@H](CO)Nc1nc(NCc2ccccc2)c2ncn(C(C)C)c2n1 [Roscovitine]
mean (LOPAC_screen_w_protease): 1.3343 | inhibition at 5 µM [12]: 3.12% | inhibition at 5 µM [13]: -0.448%

COc1ccc(CCN(C)CCCC(C#N)(c2cc(OC)c(OC)c(OC)c2)C(C)C)cc1OC.Cl (racemic) [(±)-Methoxyverapamil hydrochloride]
mean (LOPAC_screen_w_protease) [11]: 2.071 | Replicate_1 (LOPAC_screen_w_protease) [15]: 2.317 | Replicate_2 (LOPAC_screen_w_protease) [16]: 1.826

C[N+]1(C)CCOC(O)(c2ccc(-c3ccc(C4(O)C[N+](C)(C)CCO4)cc3)cc2)C1 (centres unmarked) [Hemicholinium-3]
inhibition at 5 µM [26]: 2.72% | inhibition at 5 µM [27]: 4.37% | inhibition at 5 µM [28]: 1.08%

C#CCn1c(=O)c2c(ncn2C)n(C)c1=O [3,7-Dimethyl-I-propargylxanthine]
mean [29]: 2.439 | Replicate_1 [30]: 3.614 | Replicate_2 [31]: 1.263

C#CC(N)CCC(=O)O (centres unmarked) [gamma-Acetylinic GABA]
mean [29]: 2.242 | Replicate_1 [30]: 2.252 | Replicate_2 [31]: 2.232

O=c1cc(-c2ccc(O)c(O)c2)oc2cc(O)cc(O)c12 [luteolin, reference compound]
inhibition at 5 µM (4 h, read-out: Replicate_1): 0.919% | inhibition at 5 µM (4 h, read-out: Replicate_2): 1.72% | inhibition at 5 µM (4 h, read-out: mean): 1.32% | inhibition at 5 µM (read-out: inhibition of 3CLpro in the primary screen): 1.3%

Cl.N[C@@H](Cc1cnc[nH]1)C(=O)O [L-Histidine hydrochloride]
mean [32]: 3.829 | Replicate_1 [33]: 4.566 | Replicate_2 [34]: 3.093

COc1cc(C(O)C(=O)O)ccc1O (racemic) [(±)-Vanillylmandelic acid]
mean [4]: 1.1 | Replicate_1 [5]: 2.648 | Replicate_2 [6]: -0.449

C#C[C@]1(O)CC[C@H]2[C@@H]3CCC4=Cc5nc6nc7ccccc7n6cc5C[C@]4(C)[C@H]3CC[C@@]21C [WIN 62,577]
Replicate_1: -0.8505 | Replicate_2: 3.428 | mean: 1.289

CNC(=O)[C@H]1O[C@@H](n2cnc3c(NCc4cccc(I)c4)nc(Cl)nc32)[C@H](O)[C@@H]1O [Chloro-IB-MECA]
inhibition at 5 µM [23]: 3.22% | inhibition at 5 µM [24]: 4.25% | inhibition at 5 µM [25]: 2.19%

O=C(O)c1cccnc1C(=O)O [Quinolinic acid]
inhibition at 5 µM [17]: 0.58% | inhibition at 5 µM [18]: -0.228% | inhibition at 5 µM [19]: 1.39%

N#C/C(=C\c1ccc(O)c(O)c1)C(=O)NCCCc1ccccc1 [Tyrphostin AG 555]
mean [32]: 3.848 | Replicate_1 [33]: 4.708 | Replicate_2 [34]: 2.988

CNc1ccc2oc(C[C@H]3O[C@@]4(CC[C@H]3C)O[C@H]([C@H](C)C(=O)c3ccc[nH]3)[C@H](C)C[C@H]4C)nc2c1C(=O)O [Calcimycin]
inhibition at 5 µM [26]: 3.09% | inhibition at 5 µM [27]: 2.08% | inhibition at 5 µM [28]: 4.1%

CC12NC(Cc3ccccc31)c1ccccc12.O=C(O)/C=C\C(=O)O (single isomer, unassigned; (+)) [(+)-MK-801 hydrogen maleate]
mean (sheet LOPAC_screen_w_protease, primary screen with protease, compound at 5 µM, mean of two replicates): 2.6873 | Replicate_1 (sheet LOPAC_screen_w_protease, primary screen with protease, compound at 5 µM, replicate 1): 4.9061 | Replicate_2 (sheet LOPAC_screen_w_protease, primary screen with protease, compound at 5 µM, replicate 2): 0.4685
